For 20 compounds, EC30 results are on record in US10758534B2 (Vertex Pharmaceuticals Incorporated, priority 2014, dated 2020).

This assay concerns the target T1, F508del (Homo sapiens, UniProt P13569, DEL508-508).
T1 construct: expressed in transfected cells
The experiment in a line: Protocol 1: membrane potential optical assay (FLIPR III, voltage sensing dye), identification of potentiator compounds. Type of assay: cell-based. Particulars: Table 3, compounds of Table 1. Put shortly:
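Read-out: change in voltage-sensing dye fluorescence (FLIPR III) as a measure of F508del conductance. Temperature-corrected (27° C, 24 hrs) NIH 3T3 cells expressing F508del are pretreated with potentiators, dye-loaded, then stimulated with forskolin under a chloride ion gradient using chloride-free gluconate bath.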

T1 sequence (P13569 with tags, fused parts or gaps DEL508-508): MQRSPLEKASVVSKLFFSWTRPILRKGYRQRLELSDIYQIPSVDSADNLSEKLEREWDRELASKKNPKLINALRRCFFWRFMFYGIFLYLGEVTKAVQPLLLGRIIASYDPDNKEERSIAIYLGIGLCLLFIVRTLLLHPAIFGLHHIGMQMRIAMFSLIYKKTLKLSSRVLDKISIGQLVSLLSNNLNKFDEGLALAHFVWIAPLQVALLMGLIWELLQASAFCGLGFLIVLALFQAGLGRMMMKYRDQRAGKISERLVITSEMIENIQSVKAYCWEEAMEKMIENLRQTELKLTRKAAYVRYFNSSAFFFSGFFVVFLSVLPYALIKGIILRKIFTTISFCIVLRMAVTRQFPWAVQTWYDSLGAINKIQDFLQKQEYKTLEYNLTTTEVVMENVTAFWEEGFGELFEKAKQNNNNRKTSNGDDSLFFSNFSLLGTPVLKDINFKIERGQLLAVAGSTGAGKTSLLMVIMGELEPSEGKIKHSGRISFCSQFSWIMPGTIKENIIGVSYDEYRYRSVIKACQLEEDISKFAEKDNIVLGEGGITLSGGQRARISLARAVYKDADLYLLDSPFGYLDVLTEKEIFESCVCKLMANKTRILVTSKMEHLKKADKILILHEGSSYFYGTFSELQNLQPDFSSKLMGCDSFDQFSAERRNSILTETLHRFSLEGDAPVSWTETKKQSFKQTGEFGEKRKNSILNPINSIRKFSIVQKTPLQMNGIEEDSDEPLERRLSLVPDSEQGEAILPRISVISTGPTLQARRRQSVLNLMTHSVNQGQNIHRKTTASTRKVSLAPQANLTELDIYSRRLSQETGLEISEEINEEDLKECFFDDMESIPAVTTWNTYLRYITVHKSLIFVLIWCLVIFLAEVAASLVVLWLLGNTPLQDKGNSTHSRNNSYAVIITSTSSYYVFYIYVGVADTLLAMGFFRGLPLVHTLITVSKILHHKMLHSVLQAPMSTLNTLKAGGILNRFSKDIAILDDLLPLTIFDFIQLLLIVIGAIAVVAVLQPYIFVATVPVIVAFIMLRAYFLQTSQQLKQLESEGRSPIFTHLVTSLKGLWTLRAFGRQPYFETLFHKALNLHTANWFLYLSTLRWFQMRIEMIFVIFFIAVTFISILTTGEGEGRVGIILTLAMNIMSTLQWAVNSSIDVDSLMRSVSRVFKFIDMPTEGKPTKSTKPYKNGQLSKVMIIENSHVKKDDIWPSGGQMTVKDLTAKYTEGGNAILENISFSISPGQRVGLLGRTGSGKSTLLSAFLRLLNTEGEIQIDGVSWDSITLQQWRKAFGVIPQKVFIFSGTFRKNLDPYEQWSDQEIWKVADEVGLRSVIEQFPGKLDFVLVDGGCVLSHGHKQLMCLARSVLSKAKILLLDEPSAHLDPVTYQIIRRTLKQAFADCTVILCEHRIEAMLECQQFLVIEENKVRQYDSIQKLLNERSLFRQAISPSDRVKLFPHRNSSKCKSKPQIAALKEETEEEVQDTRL

`CC(C)COc1cc(F)cc(-c2ccc(C(=O)NS(=O)(=O)c3ccccn3)c(N3C[C@@H](C)CC3(C)C)n2)c1` [Compound 1832, 6-(3-fluoro-5-isobutoxy-phenyl)-N-(2-pyridylsulfonyl)-2-[(4S)-2,2,4-trimethylpyrrolidin-1-yl]pyridine-3-carboxamide]: the EC30 entry is “+++ (“+++” means <3 uM)”.
With `Cc1ccc(-c2nc(C(C)(C)C)ccc2C(=O)NS(=O)(=O)c2ccc(O)cc2)cc1` [Compound 809, 6-tert-butyl-N-(4-hydroxyphenyl)sulfonyl-2-(p-tolyl)pyridine-3-carboxamide] the entry was “++ (“++” means between 3 uM and 10 uM)”; with `CC(C)Oc1ccc(-c2cnc(C(=O)NS(=O)(=O)c3cccc(N)n3)c(N3[C@H](C)CC[C@@H]3C)n2)cn1` [Compound 1651, N-[(6-amino-2-pyridyl)sulfonyl]-3-[(2S,5R)-2,5-dimethylpyrrolidin-1-yl]-5-(6-isopropoxy-3-pyridyl)pyrazine-2-carboxamide], “++ (“++” means between 3 uM and 10 uM)”; with `CC(C)Oc1ccc(-c2ccc(C(=O)NS(=O)(=O)c3cccc(N)n3)c(N3CCC[C@H](c4ccccc4)C3)n2)cn1` [Compound 1209], “+++ (“+++” means <3 uM)”.
For `CCCOc1ccc(-c2ccc(C(=O)NS(=O)(=O)c3ccc[nH]c3=O)c(Oc3c(C)cc(C)cc3C)n2)cc1` [Compound 1202, N-[(2-oxo-1H-pyridin-3-yl)sulfonyl]-6-(4-propoxyphenyl)-2-(2,4,6-trimethylphenoxy)pyridine-3-carboxamide], the EC30 entry is “+++ (“+++” means <3 uM)”.
Under `CC1(C)CCCc2cc(C(=O)NS(=O)(=O)c3ccc(N)cc3)c(-c3ccccc3)nc21` [Compound 1190, N-(4-aminophenyl)sulfonyl-8,8-dimethyl-2-phenyl-6,7-dihydro-5H-quinoline-3-carboxamide] stands “+++ (“+++” means <3 uM)”; under `Cc1cc(C)c(Oc2nc(-c3ccc4ccn(C)c4c3)ccc2C(=O)NS(=O)(=O)c2ccc[nH]c2=O)c(C)c1` [Compound 936, 6-(1-methylindol-6-yl)-N-[(2-oxo-1H-pyridin-3-yl)sulfonyl]-2-(2,4,6-trimethylphenoxy)pyridine-3-carboxamide], “++ (“++” means between 3 uM and 10 uM)”; under `CC1CN(c2nc(OC(C)C(C)C)c(F)cc2C(=O)NS(=O)(=O)c2cccc(N)n2)C(C)(C)C1` (centres unmarked) [Compound 1810, N-[(6-amino-2-pyridyl)sulfonyl]-6-(1,2-dimethylpropoxy)-5-fluoro-2-(2,2,4-trimethylpyrrolidin-1-yl)pyridine-3-carboxamide], “+++ (“+++” means <3 uM)”.
With `CCOc1ncc(-c2ccc(C(=O)NS(=O)(=O)c3cccc(N)n3)c(N3C[C@@H](C)CC3(C)C)n2)cc1C` [Compound 1727, N-[(6-amino-2-pyridyl)sulfonyl]-6-(6-ethoxy-5-methyl-3-pyridyl)-2-[(4S)-2,2,4-trimethylpyrrolidin-1-yl]pyridine-3-carboxamide] the entry was “+++ (“+++” means <3 uM)”; with `CC(C)(C)c1ccc(C(=O)NS(=O)(=O)c2cccc(N)n2)c(N2CCC[C@@H](c3ccccc3)C2)n1` [Compound 1261, N-[(6-amino-2-pyridyl)sulfonyl]-6-tert-butyl-2-[(3S)-3-phenyl-1-piperidyl]pyridine-3-carboxamide], “+++ (“+++” means <3 uM)”; with `CC(C)Oc1ccccc1-c1ccc(C(=O)NS(=O)(=O)N2CC[C@H](N)C2)c(N2C[C@@H](C)CC2(C)C)n1` [Compound 1897, N-[(3S)-3-aminopyrrolidin-1-yl]sulfonyl-6-(2-isopropoxyphenyl)-2-[(4S)-2,2,4-trimethylpyrrolidin-1-yl]pyridine-3-carboxamide], “+++ (“+++” means <3 uM)”.
As for `CC(C)Oc1ccc(-c2ccc(C(=O)NS(=O)(=O)c3cccc(N)n3)c(N3CC(C)(C)CC3(C)C)n2)cn1` [Compound 915, N-[(6-amino-2-pyridyl)sulfonyl]-6-(6-isopropoxy-3-pyridyl)-2-(2,2,4,4-tetramethylpyrrolidin-1-yl)pyridine-3-carboxamide], the EC30 result is on record as “+++ (“+++” means <3 uM)”.
Under `COC[C@H]1C[C@@H]1c1ccc(C(=O)NS(=O)(=O)c2cccc(N)n2)c(N2C[C@@H](C)CC2(C)C)n1` [Compound 1575, N-[(6-amino-2-pyridyl)sulfonyl]-6-[(1S,2S)-2-(methoxymethyl)cyclopropyl]-2-[(4S)-2,2,4-trimethylpyrrolidin-1-yl]pyridine-3-carboxamide] stands “++ (“++” means between 3 uM and 10 uM)”; under `CC(C)COc1cc(F)cc(-c2ccc(C(=O)NS(=O)(=O)c3cccc(N)n3)c(OCC3CCCCO3)n2)c1` (centres unmarked) [Compound 1570, N-[(6-amino-2-pyridyl)sulfonyl]-6-(3-fluoro-5-isobutoxy-phenyl)-2-(tetrahydropyran-2-ylmethoxy)pyridine-3-carboxamide], “+++ (“+++” means <3 uM)”.
`CC(C)COc1cc(F)cc(-c2ccc(C(=O)NS(=O)(=O)N3CC4CC4(N)C3)c(N3C[C@@H](C)CC3(C)C)n2)c1` (stereo partly drawn) [Compound 1521, N-[(5-amino-3-azabicyclo[3.1.0]hexan-3-yl)sulfonyl]-6-(3-fluoro-5-isobutoxy-phenyl)-2-[(4S)-2,2,4-trimethylpyrrolidin-1-yl]pyridine-3-carboxamide]: the EC30 result is given as “+++ (“+++” means <3 uM)”.
With `Cc1cc(F)cc(-c2ccc(C(=O)NS(=O)(=O)N3CC[C@H](N)C3)c(N3C[C@@H](C)CC3(C)C)n2)c1` [Compound 1819, N-[(3S)-3-aminopyrrolidin-1-yl]sulfonyl-6-(3-fluoro-5-methyl-phenyl)-2-[(4S)-2,2,4-trimethylpyrrolidin-1-yl]pyridine-3-carboxamide] the entry was “++ (“++” means between 3 uM and 10 uM)”; with `C[C@@H]1CN(c2nc(-c3ccccc3F)ccc2C(=O)NS(=O)(=O)c2cccnc2N)C(C)(C)C1` [Compound 1790, N-[(2-amino-3-pyridyl)sulfonyl]-6-(2-fluorophenyl)-2-[(4S)-2,2,4-trimethylpyrrolidin-1-yl]pyridine-3-carboxamide], “+++ (“+++” means <3 uM)”; with `CC(C)COc1cc(F)cc(-c2ccc(C(=O)NS(=O)(=O)c3cccc(N)n3)c(OC3CCCCC3)n2)c1` [Compound 1477, N-[(6-amino-2-pyridyl)sulfonyl]-2-(cyclohexoxy)-6-(3-fluoro-5-isobutoxy-phenyl)pyridine-3-carboxamide], “+++ (“+++” means <3 uM)”.
Take `Cc1cc(C)c(Oc2nc(C3=CCSCC3)ccc2C(=O)NS(=O)(=O)c2cccc(N)n2)c(C)c1` [Compound 1517, N-[(6-amino-2-pyridyl)sulfonyl]-6-(3,6-dihydro-2H-thiopyran-4-yl)-2-(2,4,6-trimethylphenoxy)pyridine-3-carboxamide]: the EC30 entry is given as “+++ (“+++” means <3 uM)”.
As for `CC(C)COc1cc(F)cc(-c2ccc(C(=O)NS(=O)(=O)c3cccc(N)n3)c(OC3CC(OCc4ccccc4)C3)n2)c1` (centres unmarked) [Compound 1559, N-[(6-amino-2-pyridyl)sulfonyl]-2-(3-benzyloxycyclobutoxy)-6-(3-fluoro-5-isobutoxy-phenyl)pyridine-3-carboxamide], the EC30 result is recorded as “+++ (“+++” means <3 uM)”.
